According to PubChem BioAssay AID1963426 (Molecular Pharmacology Branch, DTP, NCI, 2024):
Values joined by “and” are separate entries in the source; they are usually repeats but may differ in a detail not shown here. Equal entries are not always repeated.

Test system: 186277-243-T-J2-PDC complex spheroid growth, % test/control
Test: Anticancer human tumor 186277-243-T-J2-PDC patient-derived colon adenocarcinoma cell line growth inhibition [Asc]
Conditions: for viability, T/C: stronger effect = lower value
How it was run: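 Spheroid model: tumor line + HUVEC + hMSC. Single agents and combinations; top conc. at/near clinical Cmax (10 microM if undetermined), half-log dilutions. DMSO stocks at 800-fold test concentration.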

[1] = curve of first compound, second compound 0.1 µM
[2] = curve of first compound, second compound 0.316 µM
[3] = curve of first compound, second compound 1 µM
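Note: spheroids exposed to agents for 7 days.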
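Throughout, for viability, T/C: 100% = DMSO vehicle control wells.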

`C=CC(=O)N1CCN(c2nc(=O)n(-c3c(C)ccnc3C(C)C)c3nc(-c4c(O)cccc4F)c(F)cc23)C(C)C1` (configuration not stated) + CNC(C)C(=O)NC1CN(S(=O)(=O)c2cccc(S(=O)(=O)N3CCC4CCC(C(=O)NC(c5ccccc5)c5ccccc5)N4C(=O)C(NC(=O)C(C)NC)C3)c2)CCC2CCC(C(=O)NC(c3ccccc3)c3ccccc3)N2C1=O was tested. Which IC50 (curve of first compound, second compound 0.01 µM) did it give?
The IC50 was over 10000 nM.

And the IC50 (curve of first compound, second compound 0.0316 µM)?
The IC50 was over 10000 nM.

And the IC50 [1]?
Its IC50 is over 10000 nM.

What about the IC50 [2] of the same compound?
Its IC50 is over 10000 nM.

What about the IC50 [3] of the same compound?
Its IC50 is over 10000 nM.

And the viability, T/C (second compound 0.01 µM, first compound 0.0316 µM)?
Its viability, T/C is 102%.

What about the viability, T/C (second compound 0.01 µM, first compound 0.1 µM) of the same compound?
The viability, T/C was 114%.

What about the viability, T/C (second compound 0.01 µM, first compound 0.316 µM) of the same compound?
The viability, T/C was 117%.

What about the viability, T/C (second compound 0.01 µM, first compound 1 µM) of the same compound?
The viability, T/C was 100%.

What about the viability, T/C (second compound 0.01 µM, first compound 3.16 µM) of the same compound?
The viability, T/C was 112%.

And the viability, T/C (second compound 0.01 µM, first compound 10 µM)?
Its viability, T/C is 104%.

And the viability, T/C (second compound 0.0316 µM, first compound 0.0316 µM)?
Its viability, T/C is 118%.

What about the viability, T/C (second compound 0.0316 µM, first compound 0.1 µM) of the same compound?
The viability, T/C was 104%.

What about the viability, T/C (second compound 0.0316 µM, first compound 0.316 µM) of the same compound?
The viability, T/C was 122%.

And the viability, T/C (second compound 0.0316 µM, first compound 1 µM)?
Its viability, T/C is 116%.

What about the viability, T/C (second compound 0.0316 µM, first compound 3.16 µM) of the same compound?
The viability, T/C was 100%.

What about the viability, T/C (second compound 0.0316 µM, first compound 10 µM) of the same compound?
The viability, T/C was 108%.

What about the viability, T/C (second compound 0.1 µM, first compound 0.0316 µM) of the same compound?
Its viability, T/C is 124%.

And the viability, T/C (second compound 0.1 µM, first compound 0.1 µM)?
Its viability, T/C is 108%.

And the viability, T/C (second compound 0.1 µM, first compound 0.316 µM)?
Its viability, T/C is 124%.

What about the viability, T/C (second compound 0.1 µM, first compound 1 µM) of the same compound?
The viability, T/C was 114%.

What about the viability, T/C (second compound 0.1 µM, first compound 3.16 µM) of the same compound?
The viability, T/C was 122%.

What about the viability, T/C (second compound 0.1 µM, first compound 10 µM) of the same compound?
The viability, T/C was 113%.

What about the viability, T/C (second compound 0.316 µM, first compound 0.0316 µM) of the same compound?
Its viability, T/C is 124%.

What about the viability, T/C (second compound 0.316 µM, first compound 0.1 µM) of the same compound?
Its viability, T/C is 118%.

What about the viability, T/C (second compound 0.316 µM, first compound 0.316 µM) of the same compound?
The viability, T/C was 120%.

What about the viability, T/C (second compound 0.316 µM, first compound 1 µM) of the same compound?
The viability, T/C was 130%.

And the viability, T/C (second compound 0.316 µM, first compound 3.16 µM)?
The viability, T/C was 112%.

And the viability, T/C (second compound 0.316 µM, first compound 10 µM)?
Its viability, T/C is 110%.

And the viability, T/C (second compound 1 µM, first compound 0.0316 µM)?
Its viability, T/C is 112%.

And the viability, T/C (second compound 1 µM, first compound 0.1 µM)?
Its viability, T/C is 124%.

What about the viability, T/C (second compound 1 µM, first compound 0.316 µM) of the same compound?
Its viability, T/C is 109%.

And the viability, T/C (second compound 1 µM, first compound 1 µM)?
The viability, T/C was 106%.

And the viability, T/C (second compound 1 µM, first compound 3.16 µM)?
The viability, T/C was 127%.

What about the viability, T/C (second compound 1 µM, first compound 10 µM) of the same compound?
Its viability, T/C is 118%.

Which results are given for `CCN1C(C(=O)NC23CCC(C(=O)O)(CC2)CC3)C(c2cccc(Cl)c2F)C2(C(=O)Nc3cc(Cl)ccc32)C12CCCCC2` (configuration not stated) + Cc1c(S(C)(=O)=O)c(-c2cc(F)cc(N3CCN(c4ccc(NS(=O)(=O)c5ccc(NC(CCN6CCC(C(=O)OCCCP(=O)(O)O)CC6)CSc6ccccc6)c(S(=O)(=O)C(F)(F)F)c5)cc4)CC3)c2)c(-c2ccc(Cl)cc2)n1C(C)C?
IC50 [1]: 746 nM; IC50 [2]: 397 nM; IC50 [3]: 202 nM; IC50 (curve of first compound, second compound 3.16 µM): 110 nM; IC50 (curve of first compound, second compound 10 µM): 97.5 nM; viability, T/C (second compound 0.1 µM, first compound 0.00949 µM): 103%; viability, T/C (second compound 0.1 µM, first compound 0.03 µM): 137%; viability, T/C (second compound 0.1 µM, first compound 0.0949 µM): 91.4%; viability, T/C (second compound 0.1 µM, first compound 0.3 µM): 73.6%; viability, T/C (second compound 0.1 µM, first compound 0.949 µM): 47.5%; viability, T/C (second compound 0.1 µM, first compound 3 µM): 14%; viability, T/C (second compound 0.316 µM, first compound 0.00949 µM): 111%; viability, T/C (second compound 0.316 µM, first compound 0.03 µM): 121%; viability, T/C (second compound 0.316 µM, first compound 0.0949 µM): 82.6%; viability, T/C (second compound 0.316 µM, first compound 0.3 µM): 59.3%; viability, T/C (second compound 0.316 µM, first compound 0.949 µM): 26.1%; viability, T/C (second compound 0.316 µM, first compound 3 µM): 1.1%; viability, T/C (second compound 1 µM, first compound 0.00949 µM): 107%; viability, T/C (second compound 1 µM, first compound 0.03 µM): 126%; viability, T/C (second compound 1 µM, first compound 0.0949 µM): 72.7%; viability, T/C (second compound 1 µM, first compound 0.3 µM): 38.3%; viability, T/C (second compound 1 µM, first compound 0.949 µM): 8.6%; viability, T/C (second compound 1 µM, first compound 3 µM): 1.06%; viability, T/C (second compound 3.16 µM, first compound 0.00949 µM): 120%; viability, T/C (second compound 3.16 µM, first compound 0.03 µM): 103%; viability, T/C (second compound 3.16 µM, first compound 0.0949 µM): 52.5%; viability, T/C (second compound 3.16 µM, first compound 0.3 µM): 19.8%; viability, T/C (second compound 3.16 µM, first compound 0.949 µM): 2.56%; viability, T/C (second compound 3.16 µM, first compound 3 µM): 0.36%; viability, T/C (second compound 10 µM, first compound 0.00949 µM): 107%; viability, T/C (second compound 10 µM, first compound 0.03 µM): 110%; viability, T/C (second compound 10 µM, first compound 0.0949 µM): 49.7%; viability, T/C (second compound 10 µM, first compound 0.3 µM): 13.4%; viability, T/C (second compound 10 µM, first compound 0.949 µM): 3.44%; viability, T/C (second compound 10 µM, first compound 3 µM): 0.38%

How did the viability, T/C (compound 0.0316 µM) turn out when `O=C(c1cc(Cc2n[nH]c(=O)c3ccccc23)ccc1F)N1CCN(C(=O)C2CC2)CC1` was run?
Its viability, T/C is 98.1% and 91.9% and 98.5%.

What about the viability, T/C (compound 0.1 µM) of the same compound?
The viability, T/C was 95.8% and 101% and 97.5%.

And the viability, T/C (compound 0.316 µM)?
Its viability, T/C is 94.8% and 99% and 102%.

What about the viability, T/C (compound 1 µM) of the same compound?
Its viability, T/C is 95.9% and 94.6% and 98.1%.

And the viability, T/C (compound 3.16 µM)?
The viability, T/C was 105% and 117% and 121%.

What about the viability, T/C (compound 10 µM) of the same compound?
Its viability, T/C is 103% and 112% and 135%.

What about the IC50 (curve of compound) of the same compound?
The IC50 was over 10000 nM.
